We go through twelve compounds from ChEMBL document CHEMBL2390906, “Synthetic chalcones and sulfonamides as new classes of Yersinia enterocolitica YopH tyrosine phosphatase inhibitors” (Eur J Med Chem, 2013).

Broadly, the inhibition is the relative decrease from the control value, in per cent. One may read the IC50 as the concentration that gives 50% inhibition. A word on the Ki: it is a measure of affinity in units of concentration, obtained from inhibition or displacement.

SMILES strings stand for the structures.

Assay [1] addresses Tyrosine-protein phosphatase YopH (Yersinia enterocolitica) (UniProt P15273). The assay can be described thus: Inhibition of Yersinia enterocolitica recombinant YopH using pNPP as substrate at 25 uM after 10 mins by spectrophotometry.
Assay [2] addresses T1, Tyrosine-protein phosphatase YopH (Yersinia enterocolitica, UniProt P15273). The assay can be described thus: Inhibition of Yersinia enterocolitica recombinant YopH using pNPP as substrate after 10 mins by spectrophotometry.
Assay [3] addresses T1, Tyrosine-protein phosphatase YopH. The assay can be described thus: Competitive inhibition of Yersinia enterocolitica recombinant YopH using pNPP as substrate after 10 mins by Line-weaver Burk plot analysis.
Assay [4] shares this target. The assay can be described thus: Noncompetitive inhibition of Yersinia enterocolitica recombinant YopH using pNPP as substrate after 10 mins by Line-weaver Burk plot analysis.

T1 sequence (P15273 whole entry): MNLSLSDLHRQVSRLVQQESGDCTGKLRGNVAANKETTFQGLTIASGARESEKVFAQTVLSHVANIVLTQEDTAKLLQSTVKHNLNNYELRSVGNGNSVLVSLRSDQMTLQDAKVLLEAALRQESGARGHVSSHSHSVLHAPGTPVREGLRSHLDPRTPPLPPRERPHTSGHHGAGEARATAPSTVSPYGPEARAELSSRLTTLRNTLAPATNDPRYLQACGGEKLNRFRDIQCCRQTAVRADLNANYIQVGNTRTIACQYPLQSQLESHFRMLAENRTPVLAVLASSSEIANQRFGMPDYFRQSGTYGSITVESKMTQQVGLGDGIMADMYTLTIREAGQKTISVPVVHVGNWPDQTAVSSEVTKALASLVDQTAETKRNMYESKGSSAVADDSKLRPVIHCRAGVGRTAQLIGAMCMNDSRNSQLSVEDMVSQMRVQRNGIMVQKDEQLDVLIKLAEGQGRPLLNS
Sequence of Tyrosine-protein phosphatase YopH (Yersinia enterocolitica) (P15273 whole entry): as above

As for `COc1ccc2nc(Cl)c(/C=C/C(=O)c3ccc4ccccc4c3)cc2c1`, the inhibition in assay [1] turned out to be 34.6%. In addition, the IC50 in assay [2] came out at 268 µM.

Take `O=C(/C=C/c1cccc([N+](=O)[O-])c1)c1ccc2ccccc2c1`: the inhibition in assay [1] was found to be 34.7%. Moreover, the 50% inhibitory concentration (IC50) in assay [2] is 122 µM.

For the compound `O=C1[C@@H]2C3C=CC(O3)[C@@H]2C(=O)N1c1ccc(S(=O)(=O)N2CCCC2)cc1`, in assay [3], the inhibitory constant (Ki) was 4.4 µM. In assay [1], the inhibition worked out at 76.4%. In addition, in assay [2], the IC50 was found to be 9 µM.

`O=C(/C=C/c1ccc2c(c1)OCO2)c1cccc([N+](=O)[O-])c1`: in assay [3], the inhibitory constant (Ki) is 4.5 µM. Moreover, the inhibition in assay [1] was 31.3%. For the same compound, in assay [2], the half-inhibitory concentration (IC50) amounted to 9.9 µM.

Turning to `O=C(/C=C/c1cc2ccccc2nc1Cl)c1ccc2c(c1)OCO2`, the inhibition in assay [1] came to 44.2%. Moreover, the 50% inhibitory concentration (IC50) in assay [2] stood at 117 µM.

Regarding `O=C(/C=C/c1ccc2c(c1)OCO2)c1ccc([N+](=O)[O-])cc1`, the Ki in assay [3] was 4.4 µM. Also, in assay [1], the inhibition is 65.7%. In assay [2], the 50% inhibitory concentration (IC50) was found to be 15.1 µM.

As for `O=C(/C=C/c1cccc2ccccc12)c1ccc2ccccc2c1`, the inhibition in assay [1] is 26.5%. In addition, the 50% inhibitory concentration (IC50) in assay [2] was found to be 193 µM.

For the compound `O=C(/C=C/c1ccccc1)c1ccc2ccccc2c1`, the inhibition in assay [1] was determined as 30.9%. For the same compound, the IC50 in assay [2] came to 246 µM.

Consider `O=C(/C=C/c1ccc2ccccc2c1)c1ccc2ccccc2c1`, for which the Ki in assay [3] turned out to be 14.1 µM. Further, the inhibition in assay [1] is 66.9%. In addition, the IC50 in assay [2] was determined as 20.3 µM.

In the case of `O=C1c2cccc3c(Cl)ccc(c23)C(=O)N1Cc1ccc(S(=O)(=O)N2CCOCC2)cc1`, the Ki in assay [4] came to 36 µM. The inhibition in assay [1] was 82.1%. In assay [2], the IC50 came to 15.5 µM.

Turning to `O=C(/C=C/c1ccc(-c2cc(C(F)(F)F)ccc2Cl)o1)c1ccc2c(c1)OCO2`, the Ki in assay [3] worked out at 11.1 µM. In addition, the inhibition in assay [1] turned out to be 33.8%. In addition, the IC50 in assay [2] came to 38.6 µM.

For the compound `CC12C=CC(O1)[C@H]1C(=O)N(c3ccc(S(=O)(=O)N/N=C/c4ccc(Cl)c(Cl)c4)cc3)C(=O)[C@H]12` (stereo not given in full), the inhibition in assay [1] was found to be 45.6%. Further, the IC50 in assay [2] was 62.2 µM.
